Measurements as given in publication PMC2753476 (Proteins, 2009).

Molecular target: T1, glOTC (Giardia duodenalis, UniProt O76458)
T1 sequence (O76458 1-327): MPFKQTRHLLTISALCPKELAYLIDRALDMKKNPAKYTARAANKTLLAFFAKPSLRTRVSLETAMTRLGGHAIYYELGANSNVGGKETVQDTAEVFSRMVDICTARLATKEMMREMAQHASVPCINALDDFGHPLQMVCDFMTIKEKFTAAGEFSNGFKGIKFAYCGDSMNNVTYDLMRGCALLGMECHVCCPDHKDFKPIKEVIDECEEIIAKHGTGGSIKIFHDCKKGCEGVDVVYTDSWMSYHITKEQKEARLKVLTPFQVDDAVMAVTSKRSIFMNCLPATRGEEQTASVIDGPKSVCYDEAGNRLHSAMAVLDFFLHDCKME
Assay: coupled spectrophotometric assay at […] nm
Format: biochemical

N[C@@H](CCCNC(=O)CP(=O)(O)O)C(=O)O [PALO, N-phosphonoacetyl-L-ornthine] was tested. Which Ki did it give?
Its Ki is 25 ± 9 nM.
